Measurements taken from PubChem BioAssay (NCI).
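Dose response: 5 concentrations. Exposure: 48 h. Format: 96-well plates. Endpoint: linear interpolation; highest concentration if not reached. TGI denotes the concentration required for complete inhibition of growth.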

Columns and labels:
Test in all cases: NCI-60 cell line screen, 48 h
NCI/ADR-RES ovarian = system: NCI/ADR-RES ovarian
A549 NSCLC = system: A549 NSCLC
OVCAR-5 ovarian = system: OVCAR-5 ovarian
HT29 colon = system: HT29 colon
HL-60(TB) leukemia = system: HL-60(TB) leukemia
DU-145 prostate = system: DU-145 prostate
EKVX NSCLC = system: EKVX NSCLC
SN12C renal = system: SN12C renal
KM12 colon = system: KM12 colon
SK-MEL-28 melanoma = system: SK-MEL-28 melanoma
SW-620 colon = system: SW-620 colon
MDA-MB-231 breast = system: MDA-MB-231 breast
786-0 renal = system: 786-0 renal
ACHN renal = system: ACHN renal
RPMI-8226 leukemia = system: RPMI-8226 leukemia
SK-MEL-2 melanoma = system: SK-MEL-2 melanoma
HCT-15 colon = system: HCT-15 colon
RXF 393 renal = system: RXF 393 renal
K-562 leukemia = system: K-562 leukemia

c1ccc(CSP234N5CCN2CCN3CCN4CC5)c(CSP234N5CCN2CCN3CCN4CC5)c1
TGI (NCI/ADR-RES ovarian): > 100 µM | TGI (A549 NSCLC): > 100 µM | TGI (OVCAR-5 ovarian): > 100 µM | TGI (HT29 colon): > 100 µM | TGI (HL-60(TB) leukemia): 77 µM | TGI (DU-145 prostate): > 100 µM | TGI (EKVX NSCLC): > 100 µM | TGI (SN12C renal): > 100 µM | TGI (KM12 colon): > 100 µM | TGI (SK-MEL-28 melanoma): > 100 µM | TGI (SW-620 colon): > 100 µM | TGI (MDA-MB-231 breast): > 100 µM | TGI (786-0 renal): > 100 µM | TGI (ACHN renal): > 100 µM | TGI (RPMI-8226 leukemia): > 100 µM | TGI (SK-MEL-2 melanoma): > 100 µM | TGI (HCT-15 colon): > 100 µM

CC1(C)CC(=O)C(/C=N/c2nc(-c3ccccc3)cs2)=C(O)C1
TGI (NCI/ADR-RES ovarian): > 100 µM | TGI (A549 NSCLC): > 100 µM | TGI (OVCAR-5 ovarian): > 100 µM | TGI (HT29 colon): > 100 µM | TGI (HL-60(TB) leukemia): > 100 µM | TGI (DU-145 prostate): > 100 µM | TGI (EKVX NSCLC): > 100 µM | TGI (SN12C renal): > 100 µM | TGI (KM12 colon): > 100 µM | TGI (SK-MEL-28 melanoma): > 100 µM | TGI (SW-620 colon): > 100 µM | TGI (MDA-MB-231 breast): 96.8 µM | TGI (786-0 renal): > 100 µM | TGI (ACHN renal): > 100 µM | TGI (SK-MEL-2 melanoma): > 100 µM | TGI (HCT-15 colon): 63.7 µM

CCO/N=C(/N)c1ncn(Cc2ccccc2)c1NCC(OCC)OCC
TGI (A549 NSCLC): > 100 µM | TGI (OVCAR-5 ovarian): > 100 µM | TGI (HT29 colon): > 100 µM | TGI (EKVX NSCLC): > 100 µM | TGI (SN12C renal): > 100 µM | TGI (KM12 colon): > 100 µM | TGI (SW-620 colon): > 100 µM | TGI (786-0 renal): > 100 µM | TGI (ACHN renal): > 100 µM | TGI (RXF 393 renal): 99.5 µM | TGI (RPMI-8226 leukemia): > 100 µM | TGI (K-562 leukemia): > 100 µM | TGI (SK-MEL-2 melanoma): > 100 µM | TGI (HCT-15 colon): > 100 µM

CSC1=N/C(=C\c2ccccc2)C(=O)N1CN1CCCCC1
TGI (NCI/ADR-RES ovarian): > 100 µM | TGI (A549 NSCLC): > 100 µM | TGI (OVCAR-5 ovarian): > 100 µM | TGI (HT29 colon): 90.7 µM | TGI (DU-145 prostate): > 100 µM | TGI (EKVX NSCLC): > 100 µM | TGI (SN12C renal): > 100 µM | TGI (KM12 colon): > 100 µM | TGI (SK-MEL-28 melanoma): > 100 µM | TGI (SW-620 colon): > 100 µM | TGI (MDA-MB-231 breast): > 100 µM | TGI (786-0 renal): > 100 µM | TGI (ACHN renal): > 100 µM | TGI (RPMI-8226 leukemia): > 100 µM | TGI (K-562 leukemia): > 100 µM | TGI (SK-MEL-2 melanoma): > 100 µM

COC(=O)C(COC(C)=O)NC(=O)/C=C/c1ccc(O)c(OC(C)=O)c1 (configuration not stated)
TGI (NCI/ADR-RES ovarian): > 100 µM | TGI (A549 NSCLC): > 100 µM | TGI (OVCAR-5 ovarian): > 100 µM | TGI (HT29 colon): > 100 µM | TGI (DU-145 prostate): > 100 µM | TGI (EKVX NSCLC): > 100 µM | TGI (SN12C renal): > 100 µM | TGI (KM12 colon): > 100 µM | TGI (SK-MEL-28 melanoma): > 100 µM | TGI (SW-620 colon): > 100 µM | TGI (MDA-MB-231 breast): > 100 µM | TGI (786-0 renal): > 100 µM | TGI (ACHN renal): > 100 µM | TGI (RPMI-8226 leukemia): > 100 µM | TGI (K-562 leukemia): > 100 µM | TGI (SK-MEL-2 melanoma): > 100 µM | TGI (HCT-15 colon): > 100 µM

COC(=O)C(=Cc1cc(OC)c(OC)c(OC)c1-c1cc2c(cc1C(C)=O)OCO2)C(=O)OC
TGI (A549 NSCLC): 165 µM | TGI (OVCAR-5 ovarian): 74.1 µM | TGI (HT29 colon): 77 µM | TGI (HL-60(TB) leukemia): 172 µM | TGI (EKVX NSCLC): > 211 µM | TGI (SN12C renal): 58.8 µM | TGI (KM12 colon): 70.4 µM | TGI (SK-MEL-28 melanoma): 78.1 µM | TGI (SW-620 colon): 102 µM | TGI (786-0 renal): 61.6 µM | TGI (ACHN renal): 100 µM | TGI (RXF 393 renal): 63.7 µM | TGI (RPMI-8226 leukemia): > 211 µM | TGI (K-562 leukemia): > 211 µM | TGI (SK-MEL-2 melanoma): 61.7 µM | TGI (HCT-15 colon): 50.2 µM

O=c1c2cc(S(=O)(=O)O)ccc2nc(COc2ccc(Oc3ccc(Cl)cc3Cl)cc2)n1-c1ccc(Cl)cc1Oc1c(Cl)cccc1Cl
TGI (NCI/ADR-RES ovarian): 77.4 µM | TGI (A549 NSCLC): 72.1 µM | TGI (OVCAR-5 ovarian): 60.6 µM | TGI (HT29 colon): 39.9 µM | TGI (HL-60(TB) leukemia): > 100 µM | TGI (DU-145 prostate): > 100 µM | TGI (EKVX NSCLC): 40.4 µM | TGI (SN12C renal): 99.4 µM | TGI (KM12 colon): > 100 µM | TGI (SW-620 colon): 79.6 µM | TGI (786-0 renal): 64.6 µM | TGI (ACHN renal): 68.5 µM | TGI (RPMI-8226 leukemia): 64.7 µM | TGI (K-562 leukemia): > 100 µM | TGI (SK-MEL-2 melanoma): 35.6 µM | TGI (HCT-15 colon): 56.6 µM
